{"source": "patent US6235493A", "about": "“Amino acid substituted-cresyl violet, synthetic fluorogenic substrates for the analysis of agents in individual in vivo cells or tissue” (priority 1998, dated 2001)", "target": "cathepsin B (Rattus norvegicus, UniProt P00787)", "sequence (P00787 80-333)": "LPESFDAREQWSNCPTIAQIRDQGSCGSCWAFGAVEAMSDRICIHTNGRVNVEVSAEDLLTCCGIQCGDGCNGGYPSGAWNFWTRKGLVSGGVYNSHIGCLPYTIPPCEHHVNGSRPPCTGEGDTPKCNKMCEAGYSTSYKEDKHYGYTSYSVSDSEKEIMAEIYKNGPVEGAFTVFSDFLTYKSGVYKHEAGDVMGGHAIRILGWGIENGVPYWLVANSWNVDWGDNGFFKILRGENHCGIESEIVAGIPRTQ", "experiment": "Cathepsin B activity in living CC531 colon cancer cells (CSLM, (Z-Arg)^2 -cresyl violet)", "format": "cell-based", "protocol": "An established rat colon carcinoma cell line, CC531, was used for all experiments. The parental cell line was obtained from a 1,2-dimethylhydrazine-induced moderately differentiated and weakly immunogenic colon adenocarcinoma in WAG-Rij rats (44). Cells were cultured in vitro at 37° C. as monolayers in Dulbecco's modification of Eagle's medium (ICN Biomedicals, Irvine, Ayrshire, UK) supplemented with 10% (w/v) fetal bovine serum, 2 mM glutamine, 100 IU penicillin/ml and 100 μg streptomycin/ml. Cells were washed in PBS and, after detachment by scraping and centrifugation (250 g, room temperature, 10 min), a single cell suspension at a final concentration of 1×10^6 cancer cells in 50 μl of PBS was obtained with a viability of at least 95% (45,46). Cell suspension were either used for cytochemical purposes or for in vivo administration to induce metastases in the liver.\nCathepsin B activity was detected in real-time in living CC531 cells and freshly prepared living rat hepatocytes after isolation by collagenase perfusion of livers of male mature rats after 24 h of starvation (47). At time point zero, cell preparations were diluted 20-fold in PBS containing either 10 μM (Z-Arg)^2 -cresyl violet (Enzyme Systems Products, Dublin, Calif.) as fluorogenic substrate for cathepsin B (48) or 10 μM substrate and 20 μM FMK (Protek, Dublin, Calif.), as selective cathepsin B inhibitor (40,41). The fluorogenic substrate is not fluorescent but after proteolytic cleavage, liberated cresyl violet is fluorescent. Synthesis of the substrate is described elsewhere in Ref. 48. The substrate was dissolved first in dimethyl formamide (final concentration in the incubation medium was 1% (v/v)). An aliquot of 100 μl of the cell suspensions was brought into a well formed by a stainless steel ring attached to a glass slide (49). Images of cells were captured in real-time with a Leica CSLM fitted to a Leica Fluovert inverted microscopic equipped with a PL APO oil-immersion objective (×63, NA 1.40). Excitation was performed at a wavelength of 560 nm and fluorescence was captured at greater than 580 nm. Excitation with the use of green light is harmless to living cells. The pinhole aperture was set at 100 giving an optimized image (50). With fixed pinhole, filter combination and a laser power setting adjusted to give minimal fading, the photomultiplier gain and photometric offset were optimized. Cells were subjected to optical serial sectioning after each 60 s of incubation up to 300 s. Images in the X-Y plane were recorded with intervals of 0.5 μm in the Z direction. For analysis, each optical section was averaged eight times. Images were recorded in a 512×512 pixel format. The size of each pixel represented 0.015 μm^2 in the object. […]", "note": "Entries after “also recorded” stand apart in the source; their conditions may differ. Starred links: 1 amine or outer side, 2 acyl side, 3 side chain; linkers in the order of their positions; H or OH if unused. Non-standard residues stand in square brackets, D forms with d. Residues, ends and D or L forms follow the SMILES beside them. *: point of attachment. hPhe = N[C@@H](CCc1ccccc1)C(=O)O; Morpholide = C1CN(*)CCO1; CO = O=C([*:1])[*:2]; CH2F = FC*", "data": [{"smiles": "O=C(CF)[C@H](CCc1ccccc1)NC(=O)[C@H](Cc1ccccc1)NC(=O)N1CCOCC1", "note": "[FMK, Mu-Phe-homoPhe-fluoro-methylketone] ({Morpholide-CO}-Phe-[hPhe]-CH2F)", "values": [{"measurement": "inhibition of intracellular cathepsin B activity", "setting": "CC531 cells, 20 μM FMK", "result": "not intracellular cathepsin B activity; also recorded: Activity was present intracellularly"}, {"measurement": "inhibition of plasma membrane-bound (extracellular) cathepsin B activity", "setting": "CC531 cells, 20 μM FMK, 10 μM (Z-Arg)^2 -cresyl violet, 5 min, room temperature", "result": "inhibited only extracellular; also recorded: inhibited the plasma membrane-bound activity completely; also recorded: Plasma membrane-bound activity was inhibited"}, {"measurement": "uptake by living cells", "setting": "inferred from lack of inhibition of intracellular activity", "result": "had not been taken up by the living cells"}]}]}
